In patent US20220323594A1, “LIPIDATED CATIONIC PEPTIDE-PEG COMPOSITIONS FOR NUCLEIC ACID DELIVERY” (NUTCRACKER THERAPEUTICS, INC., priority 2019, published 2022):
Values belong to the molecule of their own block, whether it stands above or below them.

Experiments:
[1] = MTT viability assay after treatment with Fluc mRNA/amino lipidated peptoid formulations; format: cell-based; details: human, HeLa cells
Protocol: Cellular viability was measured following treatment with Fluc mRNA/amino lipidated peptoid formulations by a traditional MTT viability assay. […] In this assay, cells were first treated with peptoid formulations at a final mRNA concentration of 100 ng/well for 8 hours. Cells were then left to grow for 48 hours, after which time they were exposed to 1.5 mg/mL 3-(4,5-dimethylthiazol-2-yl)-2,5-diphenyltetrazolium bromide (MTT) for 2 hours, then lysed using a solubilizing solution of 10% Triton-X 100 in acidic isopropanol (0.1N HCl). The signal corresponding to reduced formazan was normalized to untreated cells to provide a relative viability of each treated condition. […] In general, nearly all conditions maintained at least 80% viability with the only exceptions being formulations of compound 5, 34, and 35.

HeLa cells [2] = test: In vitro expression of firefly luciferase (Fluc) after treatment with Fluc mRNA/amino lipidated peptoid formulations, no PEG or 2% DMG-PEG2000; format: cell-based
Protocol: The efficacy of mRNA/amino lipidated peptoid formulations was evaluated in vitro based on their ability to deliver the firefly luciferase (Fluc) reporter gene to cultured cells. Amino lipidated peptoids were combined with Fluc mRNA at a 5:1 w/w ratio, and the resulting particles were added to cultured HeLa cells at a dose of 100 ng/well (in 100 μL total volume). The resulting luciferase expression (RLU) was measured by a luminescence plate reader after 6 hours and 24 hours of treatment. […] In addition to evaluating nanoparticle complexes formed between mRNA cargos and amino lipidated peptoids alone, multicomponent formulations containing a small amount of PEG-lipid DMG-PEG2000 were also tested for in vitro Fluc mRNA delivery. In these formulations, DMG-PEG2000 was pre-mixed with candidate peptoid at an overall 2% incorporation (w/w), while maintaining the same 5:1 mass ratio of peptoid:mRNA used previously.

[3] = mRNA encapsulation by fluorescence of Qubit RNA HS dye before and after lysis with Triton X-100; format: physicochemical; details: percentage of mRNA encapsulation; Fluc mRNA/peptoid formulation, 5:1 mass ratio
Protocol: The exemplary amino lipidated cationic peptoids described in Example 2 were combined with firefly luciferase (Fluc) mRNA to form nanoparticle compositions to be evaluated for therapeutic and/or prophylactic purposes in vitro or in vivo. The formulations were prepared according to the protocol of Example 3 and mixed by simple pipetting. The mRNA/peptoid formulation at a 5:1 mass ratio of peptoid:cargo were evaluated by dynamic light scattering (DLS) in order to determine the volume average particle size/diameter (nm) of the mRNA/peptoid complex and the size polydispersity index (PDI) within the formulation. The percentage of mRNA encapsulation for each formulation of the exemplary compounds were determined by fluorescence of the Qubit RNA HS (Invitrogen) dye before and after lysis of particles by Triton X-100.

HeLa cells [4] = test: In vitro Fluc expression with variable peptoid:mRNA mass ratio, 2% DMG-PEG2000; format: cell-based; details: 24 h; for Observed Luciferase Expression (RLU) for Given Formulation Mass Ratio 2:1: 2% (w/w) DMG-PEG2000, peptoid:mRNA 2:1; for Observed Luciferase Expression (RLU) for Given Formulation Mass Ratio 3.5:1: 2% (w/w) DMG-PEG2000, peptoid:mRNA 3.5:1; for Observed Luciferase Expression (RLU) for Given Formulation Mass Ratio 5:1: 2% (w/w) DMG-PEG2000, peptoid:mRNA 5:1; for Observed Luciferase Expression (RLU) for Given Formulation Mass Ratio 7.5:1: 2% (w/w) DMG-PEG2000, peptoid:mRNA 7.5:1
Protocol: The charge ratio dependence of amino lipidated peptoid delivery vehicles was evaluated by formulating particles between Fluc mRNA and delivery vehicles at varying mass ratios. Formulations were varied between 2:1 and 7.5:1 peptoid:mRNA (w/w) ratios (2:1, 3.5:1, 5:1 and 7.5:1). In addition, the role of DMG-PEG2000 was also explored with the mass ratios, either by excluding DMG-PEG2000 or incorporating DMG-PEG2000 at 2% (w/w) relative to amino lipidated peptoid. Fluc expression from these formulations was measured in HeLa cells following treatment for 24 hours. […] FIGS. 6B and 6C show plots of the average bioluminescence (RLU) for HeLa cells treated with the formulations of exemplary amino lipidated cationic peptoid compounds 1-36, all formulated with 2% w/w DMG-PEG2000.

[5] = no PEG, peptoid:Fluc mRNA 5:1 w/w, 100 ng/well, 6 h of treatment
[6] = no PEG, peptoid:Fluc mRNA 5:1 w/w, 100 ng/well, 24 h of treatment
[7] = with 2% (w/w) DMG-PEG2000, peptoid:mRNA 5:1, 6 h after treatment
[8] = with 2% (w/w) DMG-PEG2000, peptoid:mRNA 5:1, 24 h after treatment

SMILES: CCCCCCCCCCN(CC(N)=O)C(=O)CN(CCCCCCCCCC)C(=O)CN(CCCCCCCCCC)C(=O)CN(CCCCCCCCCC)C(=O)CN(CCCCCCCCCC)C(=O)CN(CCc1ccccc1)C(=O)CN(CCc1ccccc1)C(=O)CN(CCN)C(=O)CN(CCc1ccccc1)C(=O)CN(CCc1ccccc1)C(=O)CN(CCN)C(=O)CN(CCc1ccccc1)C(=O)CN(CCc1ccccc1)C(=O)CNCCN [Compound 19]
- viability at 8 h, 500 ng/well ([1]; Relative Viability (%) 2% PEG): 94.8%
- viability at 8 h, 500 ng/well ([1]; Relative Viability (%) No PEG): 87.1%

SMILES: CCCCCCCCCCN(CC(N)=O)C(=O)CN(CCCCCCCCCC)C(=O)CN(CCCCCCCCCC)C(=O)CN(CCCCCCCCCC)C(=O)CN(CCc1ccccc1)C(=O)CN(CCc1ccccc1)C(=O)CN(CCN)C(=O)CN(CCc1ccccc1)C(=O)CN(CCc1ccccc1)C(=O)CN(CCN)C(=O)CN(CCc1ccccc1)C(=O)CN(CCc1ccccc1)C(=O)CNCCN [Compound 8]
- viability at 8 h, 500 ng/well ([1]; Relative Viability (%) 2% PEG): 97.3%
- viability at 8 h, 500 ng/well ([1]; Relative Viability (%) No PEG): 92%

SMILES: CCCCCCCCCCN(CC(N)=O)C(=O)CN(CCCCCCCCCC)C(=O)CN(CCCCCCCCCC)C(=O)CN(CCCCCCCCCC)C(=O)CN(CCc1ccccc1)C(=O)CN(CCc1ccccc1)C(=O)CN(CC1CCCN1)C(=O)CN(CCc1ccccc1)C(=O)CN(CCc1ccccc1)C(=O)CN(CC1CCCN1)C(=O)CN(CCc1ccccc1)C(=O)CN(CCc1ccccc1)C(=O)CN(CC1CCCN1)C(=O)CN(CCc1ccccc1)C(=O)CN(CCc1ccccc1)C(=O)CNCC1CCCN1 (stereo not shown) [Compound 35]
- viability at 8 h, 500 ng/well ([1]; Relative Viability (%) 2% PEG): 105%
- viability at 8 h, 500 ng/well ([1]; Relative Viability (%) No PEG): 74.8%
- viability at 8 h, 500 ng/well ([1]; viability): < 80%

SMILES: CCCCCCCCCCN(CC(N)=O)C(=O)CN(CCCCCCCCCC)C(=O)CN(CCCCCCCCCC)C(=O)CN(CCCCCCCCCC)C(=O)CN(CCc1ccccc1)C(=O)CN(CCc1ccccc1)C(=O)CN(CC1CCCN1)C(=O)CN(CCc1ccccc1)C(=O)CN(CCc1ccccc1)C(=O)CN(CC1CCCN1)C(=O)CN(CCc1ccccc1)C(=O)CN(CCc1ccccc1)C(=O)CNCC1CCCN1 (stereo not shown) [Compound 34]
- viability at 8 h, 500 ng/well ([1]; Relative Viability (%) 2% PEG): 106%
- viability at 8 h, 500 ng/well ([1]; Relative Viability (%) No PEG): 67.6%
- viability at 8 h, 500 ng/well ([1]; viability): < 80%

- % Encapsulation [3]: 3.9%
SMILES: CCCCCCCCCCN(CC(N)=O)C(=O)CN(CCCCCCCCCC)C(=O)CN(CCCCCCCCCC)C(=O)CN(CCCCCCCCCC)C(=O)CN(CCCCCCCCCC)C(=O)CN(CCCCCCCCCC)C(=O)CN(CCCCCCCCCC)C(=O)CN(CCc1ccccc1)C(=O)CN(CCc1ccccc1)C(=O)CN(CCN)C(=O)CN(CCc1ccccc1)C(=O)CN(CCc1ccccc1)C(=O)CN(CCN)C(=O)CN(CCc1ccccc1)C(=O)CN(CCc1ccccc1)C(=O)CNCCN [Compound 23]
- Luciferase Expression (RLU) 6 h (HeLa cells [2]; [5]): 5.60E+01 RLU
- Luciferase Expression (RLU) 24 h (HeLa cells [2]; [6]): 9.47E+01 RLU
- Luciferase Expression (RLU) 6 h (HeLa cells [2]; [7]): 2.53E+01 RLU
- Luciferase Expression (RLU) 24 h (HeLa cells [2]; [8]): 2.13E+01 RLU
- Observed Luciferase Expression (RLU) for Given Formulation Mass Ratio 2:1 (HeLa cells [4]): 5.47E+01 RLU
- Observed Luciferase Expression (RLU) for Given Formulation Mass Ratio 3.5:1 (HeLa cells [4]): 1.42E+02 RLU
- Observed Luciferase Expression (RLU) for Given Formulation Mass Ratio 5:1 (HeLa cells [4]): 2.07E+02 RLU
- Observed Luciferase Expression (RLU) for Given Formulation Mass Ratio 7.5:1 (HeLa cells [4]): 1.55E+02 RLU
- viability at 8 h, 500 ng/well ([1]; Relative Viability (%) 2% PEG): 118%
- viability at 8 h, 500 ng/well ([1]; Relative Viability (%) No PEG): 108%

SMILES: CCCCCCCCCCN(CC(N)=O)C(=O)CN(CCCCCCCCCC)C(=O)CN(CCCCCCCCCC)C(=O)CN(CCCCCCCCCC)C(=O)CN(CCc1ccccc1)C(=O)CN(CCc1ccccc1)C(=O)CN(CCCN)C(=O)CN(CCc1ccccc1)C(=O)CN(CCc1ccccc1)C(=O)CN(CCCN)C(=O)CN(CCc1ccccc1)C(=O)CN(CCc1ccccc1)C(=O)CN(CCCN)C(=O)CN(CCc1ccccc1)C(=O)CN(CCc1ccccc1)C(=O)CNCCCN [Compound 29]
- viability at 8 h, 500 ng/well ([1]; Relative Viability (%) 2% PEG): 94%
- viability at 8 h, 500 ng/well ([1]; Relative Viability (%) No PEG): 85.9%

SMILES: CCCCCCCCCCN(CC(N)=O)C(=O)CN(CCCCCCCCCC)C(=O)CN(CCCCCCCCCC)C(=O)CN(CCCCCCCCCC)C(=O)CN(CCCCCCCCCC)C(=O)CN(CCc1ccccc1)C(=O)CN(CCc1ccccc1)C(=O)CN(CCN)C(=O)CN(CCc1ccccc1)C(=O)CN(CCc1ccccc1)C(=O)CN(CCN)C(=O)CN(CCc1ccccc1)C(=O)CN(CCc1ccccc1)C(=O)CN(CCN)C(=O)CN(CCc1ccccc1)C(=O)CN(CCc1ccccc1)C(=O)CNCCN [Compound 21]
- viability at 8 h, 500 ng/well ([1]; Relative Viability (%) 2% PEG): 109%
- viability at 8 h, 500 ng/well ([1]; Relative Viability (%) No PEG): 91.3%

SMILES: CCCCCCCCCCN(CC(N)=O)C(=O)CN(CCCCCCCCCC)C(=O)CN(CCc1ccccc1)C(=O)CN(CCc1ccccc1)C(=O)CN(CCN)C(=O)CN(CCc1ccccc1)C(=O)CN(CCc1ccccc1)C(=O)CN(CCN)C(=O)CN(CCc1ccccc1)C(=O)CN(CCc1ccccc1)C(=O)CN(CCN)C(=O)CN(CCc1ccccc1)C(=O)CN(CCc1ccccc1)C(=O)CN(CCN)C(=O)CN(CCc1ccccc1)C(=O)CN(CCc1ccccc1)C(=O)CNCCN [Compound 12]
- viability at 8 h, 500 ng/well ([1]; Relative Viability (%) 2% PEG): 104%
- viability at 8 h, 500 ng/well ([1]; Relative Viability (%) No PEG): 98.5%

SMILES: CCCCCCCCCCN(CC(=O)N(CC(=O)N(CCCCCCCCCC)CC(=O)N(CC(N)=O)CC(CC)CCCC)CC(CC)CCCC)C(=O)CN(CCc1ccccc1)C(=O)CN(CCc1ccccc1)C(=O)CN(CCN)C(=O)CN(CCc1ccccc1)C(=O)CN(CCc1ccccc1)C(=O)CN(CCN)C(=O)CN(CCc1ccccc1)C(=O)CN(CCc1ccccc1)C(=O)CNCCN (stereo not shown) [Compound 24]
- viability at 8 h, 500 ng/well ([1]; Relative Viability (%) 2% PEG): 112%
- viability at 8 h, 500 ng/well ([1]; Relative Viability (%) No PEG): 92%

- % Encapsulation [3]: 35.7%
SMILES: CCCCCCCCCCN(CC(N)=O)C(=O)CN(CCCCCCCCCC)C(=O)CN(CCCCCCCCCC)C(=O)CN(CCCCCCCCCC)C(=O)CN(CCc1ccccc1)C(=O)CN(CCc1ccccc1)C(=O)CN(CCNC)C(=O)CN(CCc1ccccc1)C(=O)CN(CCc1ccccc1)C(=O)CN(CCNC)C(=O)CN(CCc1ccccc1)C(=O)CN(CCc1ccccc1)C(=O)CN(CCNC)C(=O)CN(CCc1ccccc1)C(=O)CN(CCc1ccccc1)C(=O)CNCCNC [Compound 26]
- Luciferase Expression (RLU) 6 h (HeLa cells [2]; [5]): 5.00E+00 RLU
- Luciferase Expression (RLU) 24 h (HeLa cells [2]; [6]): 1.07E+01 RLU
- Luciferase Expression (RLU) 6 h (HeLa cells [2]; [7]): 5.85E+02 RLU
- Luciferase Expression (RLU) 24 h (HeLa cells [2]; [8]): 6.45E+02 RLU
- Observed Luciferase Expression (RLU) for Given Formulation Mass Ratio 2:1 (HeLa cells [4]): 4.91E+02 RLU
- Observed Luciferase Expression (RLU) for Given Formulation Mass Ratio 3.5:1 (HeLa cells [4]): 3.93E+03 RLU
- Observed Luciferase Expression (RLU) for Given Formulation Mass Ratio 5:1 (HeLa cells [4]): 6.06E+03 RLU
- Observed Luciferase Expression (RLU) for Given Formulation Mass Ratio 7.5:1 (HeLa cells [4]): 3.19E+03 RLU
- viability at 8 h, 500 ng/well ([1]; Relative Viability (%) 2% PEG): 91.9%
- viability at 8 h, 500 ng/well ([1]; Relative Viability (%) No PEG): 98.8%
